Assay in all cases: growth of human tumour cells (NCI), 48 h
Assay [1] relates to 786-0.
Assay [2] concerns A549.
Assay [3] concerns BT-549.
Assay [4] concerns HCC 2998.
Assay [5] relates to HL-60.
Assay [6] deals with HT-29.
Assay [7] deals with Hs-578T.
The subject of assay [8] is KM12.
Assay [9] concerns Malme-3M.
Assay [10] concerns OVCAR-3.
Assay [11] has as its system OVCAR-4.
Assay [12] concerns OVCAR-8.
The subject of assay [13] is RPMI-8226.
In assay [14] the test system is RXF 393.
Assay [15] concerns SF-268.
The test system of assay [16] is SK-OV-3.
The subject of assay [17] is SW-620.
Assay [18] has as its system UACC-62.
Assay [19] has as its system UO-31.

Structures are written as SMILES.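 Cells were grown in 96-well plates and exposed to each compound for 48 hours at five concentrations; endpoints were interpolated linearly between bracketing concentrations, or set to the highest concentration if not reached. GI50 = concentration required for 50% inhibition of growth.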 Calls of active or inactive are those of the source. No stated cut-off is given here; in the data, active = GI50 up to about 1.1 µM and inactive = higher. Where only a bound is given, the exact number is not on record here.

On to `N=C(N)NNC(=O)C(=O)O`, for which the GI50 in [1], in assay [2], in assay [3], in assay [4], in [5] and in assay [6] was > 100 µM (inactive) in each case. The GI50 in assay [7], in assay [8], in assay [9], in [10], in assay [11] and in [12] was > 100 µM (inactive) each time. The GI50 in assay [13] is > 100 µM (inactive); in assay [14], > 100 µM (inactive); in [15], > 100 µM (inactive); in assay [16], 55.1 µM (inactive); in assay [17], > 100 µM (inactive); in assay [18], > 100 µM (inactive). Moreover, the GI50 in assay [19] was > 100 µM (inactive).
As to `COc1cc(OC)c2c(O)c3c(cc2c1)CC(C)(C)CC3=O`, the GI50 in [1] was > 67.3 µM (inactive); in assay [2], > 100 µM (inactive); in assay [3], > 100 µM (inactive); in assay [4], > 100 µM (inactive); in [5] it was > 32.7 µM (inactive); in assay [6] it was 5.96 µM (inactive). For the same molecule, the GI50 in assay [7] was 16.3 µM (inactive); in assay [8], > 92.3 µM (inactive); in [9] it was 48.5 µM (inactive); in assay [10], > 74.1 µM (inactive); in assay [11], 32.1 µM (inactive); in [12], > 100 µM (inactive). Besides, the GI50 in assay [13] was > 100 µM (inactive); in assay [14] it was > 100 µM (inactive); in assay [15] it was > 100 µM (inactive); in assay [16] it was > 100 µM (inactive); in [17], 59 µM (inactive); in assay [18] it was 90.6 µM (inactive). The GI50 in [19] is > 100 µM (inactive).
Take `N/N=C(\c1nc2ccc([N+](=O)[O-])cc2nc1O)C(O)c1ccc(Cl)c(Cl)c1` (stereo not drawn): the GI50 is > 100 µM (inactive) in assay [1]; > 100 µM (inactive) in assay [2]; > 100 µM (inactive) in assay [3]; > 100 µM (inactive) in assay [4]; 47.4 µM (inactive) in assay [5]; > 100 µM (inactive) in assay [6]. Also, the GI50 in [7] is > 100 µM (inactive); in assay [8], 28.3 µM (inactive); in assay [9] it was > 100 µM (inactive); in assay [10], > 100 µM (inactive); in [11], > 100 µM (inactive); in assay [12] it was > 100 µM (inactive). Also, the GI50 was 22.8 µM (inactive) in assay [13]; > 100 µM (inactive) in assay [14]; > 100 µM (inactive) in assay [15]; 88.1 µM (inactive) in assay [16]; 56.9 µM (inactive) in [17]; > 100 µM (inactive) in [18]. Moreover, the GI50 in assay [19] is 26.7 µM (inactive).
`CC1(C)C(=O)C2(OS(=O)(=O)C(F)(F)F)CCC1C2` (stereo not drawn): the GI50 in assay [1], in [2], in assay [3], in assay [4], in [5] and in assay [6] was > 100 µM (inactive) each time. For the same molecule, the GI50 in assay [7], in assay [8], in assay [9], in assay [10], in assay [11] and in [12] was > 100 µM (inactive) throughout. The GI50 in [13], in [14], in [15], in assay [16], in [17] and in assay [18] was > 100 µM (inactive) in each case. The GI50 in assay [19] is > 100 µM (inactive).
Turning to `N#CS/C(C(Cl)=C(Cl)Cl)=C(/Cl)[N+](=O)[O-]`, the GI50 in [1] is 1.68 µM (inactive); in assay [2] it was 21 µM (inactive); in [3] it was 2.24 µM (inactive); in assay [4] it was 18.6 µM (inactive); in assay [5], 0.219 µM (active); in [6], 1.9 µM (inactive). For the same molecule, the GI50 in [7] was 6.1 µM (inactive); in assay [8], 9.64 µM (inactive); in [9], 1.58 µM (inactive); in assay [10], 1.53 µM (inactive); in [11], 1.95 µM (inactive); in [12], 1.75 µM (inactive). Moreover, the GI50 in assay [13] was 0.9 µM (active); in assay [14], 1.4 µM (inactive); in [15], 3.17 µM (inactive); in [16] it was 17 µM (inactive); in assay [17], 1.78 µM (inactive); in [18], 4.26 µM (inactive). The GI50 in assay [19] is 1.63 µM (inactive).
Take `C=C1C(=O)OC2/C=C(\CO)CC/C=C(\CO)CC(OC(=O)C(C)C)C12` (stereo not drawn): the GI50 was 5.52 µM (inactive) in assay [1]; 20.1 µM (inactive) in assay [2]; 7.94 µM (inactive) in [3]; 20.7 µM (inactive) in assay [4]; 2.87 µM (inactive) in [5]; 14.6 µM (inactive) in assay [6]. The GI50 in assay [7] is 19.9 µM (inactive); in assay [8], 18.2 µM (inactive); in assay [9] it was 2.08 µM (inactive); in assay [10], 11.6 µM (inactive); in assay [11], 19.4 µM (inactive); in assay [12] it was 20 µM (inactive). Further, the GI50 in assay [13] was 3.37 µM (inactive); in assay [14], 5.83 µM (inactive); in assay [15], 13.9 µM (inactive); in assay [16], 27.2 µM (inactive); in [17], 4.41 µM (inactive); in assay [18], 14.1 µM (inactive). Besides, in [19], the GI50 was 14 µM (inactive).
For the molecule `CCCC(Sc1nc(N)nc2nc[nH]c12)C(=O)O` (stereo not drawn), the GI50 in assay [1] is 92.5 µM (inactive); in [2], > 100 µM (inactive); in assay [3], > 100 µM (inactive); in assay [4] it was 34.3 µM (inactive); in assay [5] it was > 100 µM (inactive); in assay [6] it was 78.5 µM (inactive). In addition, the GI50 is > 100 µM (inactive) in assay [7]; > 100 µM (inactive) in assay [8]; > 100 µM (inactive) in [9]; > 100 µM (inactive) in [10]; > 100 µM (inactive) in [11]; 56.2 µM (inactive) in assay [12]. The GI50 in [13] is 35.2 µM (inactive); in [14], 81.5 µM (inactive); in assay [15] it was 46.8 µM (inactive); in assay [16], 58.3 µM (inactive); in assay [17] it was > 100 µM (inactive); in assay [18] it was 36.6 µM (inactive). For the same molecule, the GI50 in [19] was 65.2 µM (inactive).
Take `Nc1nc(Sc2ccc([N+](=O)[O-])cn2)c2nc[nH]c2n1`: the GI50 is 5.74 µM (inactive) in assay [1]; 15.1 µM (inactive) in assay [2]; 8.45 µM (inactive) in assay [3]; 12.8 µM (inactive) in assay [4]; 10.7 µM (inactive) in assay [5]; 4.86 µM (inactive) in assay [6]. Besides, the GI50 was 15.3 µM (inactive) in assay [7]; 7.38 µM (inactive) in assay [8]; 11.4 µM (inactive) in assay [9]; 8.93 µM (inactive) in assay [10]; 9.18 µM (inactive) in [11]; 4.81 µM (inactive) in assay [12]. Further, the GI50 in [13] was 14 µM (inactive); in assay [14], 2.73 µM (inactive); in assay [15], 4.35 µM (inactive); in assay [16], 3.95 µM (inactive); in assay [17] it was 18.2 µM (inactive); in [18], 2.94 µM (inactive). In addition, the GI50 in assay [19] is 3.99 µM (inactive).
As to `Cc1ccnc2[nH]c3ccccc3c(=O)c12`, the GI50 was 41.2 µM (inactive) in assay [1]; 30.1 µM (inactive) in [3]; 19.9 µM (inactive) in assay [4]; 15.1 µM (inactive) in assay [5]; 15.7 µM (inactive) in assay [6]; 16.3 µM (inactive) in assay [7]. Further, the GI50 is 13.1 µM (inactive) in assay [8]; 19.2 µM (inactive) in assay [9]; 23.7 µM (inactive) in [10]; 29 µM (inactive) in assay [11]; 27 µM (inactive) in [12]; 25.9 µM (inactive) in [13]. For the same molecule, the GI50 was 15.6 µM (inactive) in assay [14]; 18.9 µM (inactive) in assay [15]; 43.5 µM (inactive) in assay [16]; 35.9 µM (inactive) in assay [17]; 16.9 µM (inactive) in assay [18]; 18 µM (inactive) in assay [19].
`C/C(=N\NC(=S)N(C)C)c1ccccn1`: the GI50 in assay [1] was < 0.0118 µM (active); in assay [2], 0.0413 µM (active); in [3], 0.0111 µM (active); in assay [4], 0.161 µM (active); in [5], < 0.01 µM (active); in assay [6], < 0.01 µM (active). Further, the GI50 in assay [7] is 3.7 µM (inactive); in assay [8], 0.0307 µM (active); in [9], 0.219 µM (active); in assay [10], < 0.01 µM (active); in [11], < 0.01 µM (active); in [12], < 0.01 µM (active). For the same molecule, the GI50 in assay [13] is < 0.0379 µM (active); in [14], 0.41 µM (active); in [15], < 0.0317 µM (active); in assay [16], < 0.0264 µM (active); in [17], 0.0109 µM (active); in assay [18], < 0.0124 µM (active). The GI50 in [19] is 0.122 µM (active).
In the case of `Nc1ccc(-c2nc3cc(F)ccc3s2)cc1Cl`, the GI50 in [1] was 25.8 µM (inactive); in assay [2], 7.46 µM (inactive); in assay [3], 8.15 µM (inactive); in assay [4], < 0.01 µM (active); in [5] it was 3.64 µM (inactive); in assay [6] it was 0.692 µM (active). Moreover, the GI50 is 27.1 µM (inactive) in assay [7]; 8.99 µM (inactive) in assay [8]; 20.1 µM (inactive) in assay [9]; 0.049 µM (active) in [10]; 17.1 µM (inactive) in assay [11]; 38.6 µM (inactive) in assay [12]. Besides, the GI50 was > 55.1 µM (inactive) in assay [13]; 24 µM (inactive) in [14]; 25.5 µM (inactive) in [15]; 19.1 µM (inactive) in assay [16]; > 100 µM (inactive) in assay [17]; 39.7 µM (inactive) in assay [18]. Moreover, the GI50 in assay [19] is 31.8 µM (inactive).
